Measurements from PMC3380923, “Structure Analysis of Entamoeba histolytica DNMT2 (EhMeth)” (PLoS ONE, 2012).

Biological target: T1, EhMeth (Entamoeba histolytica, UniProt Q6Q386)
T1 construct: gene meth; GST fusion from pGEX6-P3 in E. coli BL21(DE3), GST cleaved off with PreScission protease; one molecule per asymmetric unit
T1 sequence (Q6Q386 1-322): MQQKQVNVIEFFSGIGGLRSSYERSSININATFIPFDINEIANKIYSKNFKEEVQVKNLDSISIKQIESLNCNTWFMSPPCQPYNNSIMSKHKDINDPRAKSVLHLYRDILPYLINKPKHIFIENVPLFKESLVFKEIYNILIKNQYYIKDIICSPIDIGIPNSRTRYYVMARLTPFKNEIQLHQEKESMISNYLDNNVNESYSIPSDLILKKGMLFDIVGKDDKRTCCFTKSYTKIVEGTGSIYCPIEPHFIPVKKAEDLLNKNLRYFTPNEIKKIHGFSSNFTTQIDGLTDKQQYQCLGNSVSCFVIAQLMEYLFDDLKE
Experiment: X-ray crystal structure, […] Å
Settings: co-crystallised with 150x molar excess AdoHcy, pH 6.5, 20 °C; cofactor-binding pocket

SMILES: Nc1ncnc2c1ncn2[C@@H]1O[C@H](CSCC[C@H](N)C(=O)O)[C@@H](O)[C@H]1O [AdoHcy]
- X-ray crystal structure, 2.15 Å: the crystal structure of the binary complex comprising EhMeth and AdoHcy is presented
